Structures can show the parent of a compound that is named as a salt.
Legend:
SMOX = SMOX (Homo sapiens (Human), UniProt Q9NWM0); experiment: Human SMOX assay (HyPerBlu chemiluminescent detection of hydrogen peroxide); format: biochemical; details: 2.5 nM full length hSMOX, spermine substrate, 1 h at room temperature, luminescence read; read-out: SMOx_IC50
Procedure: (§1) The direct detection of hydrogen peroxide produced from the enzymatic reaction of hSMOX or hPAOX in a biochemical assay format was measured using HyPerBlu (Lumigen, Southfield, MI), a small molecule boronate probe that reacts with hydrogen peroxide to generate a chemiluminescent signal. Inhibition of hSMOX or hPAOX enzyme results in a decrease in luminescence.
Test compounds (75 nL) dissolved in DMSO were added to a 384-well white assay plate (Greiner Bio-one, catalog #784075) using an ECHO Acoustic Dispenser (Labcyte). Each compound was serially diluted 3-fold in DMSO to prepare an 11-point dose response curve (columns 1-22). Column 23 and 24 contained 75 nL of 2 mM chlorhexidine and DMSO, respectively, to represent the 100% inhibited versus the neutral control reactions.
Subsequently, 3 μL/well of the substrate solution prepared in assay buffer (10 mM Hepes, pH 7.4, 150 mM NaCl, 1 mM EGTA, 0.01% Pluronic F-127, 0.05% ovalbumin) was dispensed into the assay plate followed by 3 μL/well of full length hSMOX enzyme with an N-terminal His tag from E. coli prepared in assay buffer to initiate the reactions. After a 1 h incubation at room temperature, 6 μL/well of HyPerBlu was added. After a 30 min incubation, the hydrogen peroxide product generated from the hSMOX reactions was measured using an endpoint luminescence read on the PHERAStar FS/FSX microplate reader (BMG LABTECH).
The final assay conditions included 10 mM Hepes, pH 7.4, 150 mM NaCl, 1 mM EGTA, 0.01% Pluronic F-127, 0.05% ovalbumin, 2.5 nM hSMOX, 30 µM spermine, and 1.25% DMSO.
Dose-response curves were fit and compound IC50 values were determined using Genedata Screener (Genedata AG).

hPAOX = hPAOX (Homo sapiens (Human), UniProt Q6QHF9); experiment: Human PAOX assay (HyPerBlu chemiluminescent detection of hydrogen peroxide); format: biochemical; details: 60 pM recombinant PAOX, 20 μM N-acetylspermine substrate
hPAOX, sequence (Q6QHF9 whole entry): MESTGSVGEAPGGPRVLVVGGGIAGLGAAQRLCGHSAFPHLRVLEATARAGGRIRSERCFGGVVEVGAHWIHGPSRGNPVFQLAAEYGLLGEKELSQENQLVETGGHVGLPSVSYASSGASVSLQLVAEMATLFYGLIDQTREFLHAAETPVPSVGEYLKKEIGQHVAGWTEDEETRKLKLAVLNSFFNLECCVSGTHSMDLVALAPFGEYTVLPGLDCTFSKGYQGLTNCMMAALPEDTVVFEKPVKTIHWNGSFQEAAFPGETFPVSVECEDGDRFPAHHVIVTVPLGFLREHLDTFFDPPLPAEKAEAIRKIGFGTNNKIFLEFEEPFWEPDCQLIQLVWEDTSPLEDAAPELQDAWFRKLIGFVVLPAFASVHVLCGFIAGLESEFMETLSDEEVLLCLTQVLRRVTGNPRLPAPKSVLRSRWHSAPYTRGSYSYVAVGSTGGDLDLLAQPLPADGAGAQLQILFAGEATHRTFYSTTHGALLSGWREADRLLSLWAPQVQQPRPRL
Procedure: as §1
The hPAOX assay was run and the data analyzed similarly to the hSMOX assay described above, except the reactions contained 60 pM recombinant PAOX with an N-terminal His tag expressed from sf9 insect cells and used 20 μM N-acetylspermine as the substrate.

SMOX, sequence (Q9NWM0 whole entry): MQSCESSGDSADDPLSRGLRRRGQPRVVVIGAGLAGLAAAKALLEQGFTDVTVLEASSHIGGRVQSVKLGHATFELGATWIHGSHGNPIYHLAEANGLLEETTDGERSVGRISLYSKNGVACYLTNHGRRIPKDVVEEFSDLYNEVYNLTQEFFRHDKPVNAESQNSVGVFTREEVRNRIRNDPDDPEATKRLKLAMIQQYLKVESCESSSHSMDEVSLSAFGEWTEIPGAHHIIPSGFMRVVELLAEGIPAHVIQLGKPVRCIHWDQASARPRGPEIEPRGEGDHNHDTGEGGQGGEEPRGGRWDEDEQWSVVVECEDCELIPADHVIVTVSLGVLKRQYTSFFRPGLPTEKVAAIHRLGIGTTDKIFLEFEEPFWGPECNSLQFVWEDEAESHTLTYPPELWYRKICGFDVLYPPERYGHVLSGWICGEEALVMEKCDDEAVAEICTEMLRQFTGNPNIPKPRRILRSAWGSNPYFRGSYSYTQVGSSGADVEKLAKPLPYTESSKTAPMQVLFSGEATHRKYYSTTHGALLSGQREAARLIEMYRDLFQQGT

IC50 (SMOX) [nM] | IC50 (hPAOX) [nM] | SMILES
142 | 197 | O=C(NCC1CCCN1)c1cc2nc(-c3ccccc3)cc(-c3ccccc3)n2n1 (centres unmarked) [Example 117, 5,7-diphenyl-(pyrrolidin-2-ylmethyl)pyrazolo[1,5-a]pyrimidine-2-carboxamide]
285 | 289 | COc1ccccc1-c1cc(-c2ccccc2)nc2cc(C(=O)NCCCn3ccnc3)nn12 [Example 80, N-(3-(1H-imidazol-1-yl)propyl)-7-(2-methoxyphenyl)-5-phenylpyrazolo[1,5-a]pyrimidine-2-carboxamide]
303 | 387 | O=C(NCCCn1ccnc1)c1cc2nc(-c3ccccc3)cc(-c3cccc(O)c3)n2n1 [Example 87, N-(3-(1H-imidazol-1-yl)propyl)-7-(3-hydroxyphenyl)-5-phenylpyrazolo[1,5-a]pyrimidine-2-carboxamide]
4010 | > 31200 | CN1CC(NC(=O)c2cc3nc(N4CCC4)cc(-c4ccccc4)n3n2)C1 [Example 100, 5-(azetidin-1-yl)-N-(1-methylazetidin-3-yl)-7-phenylpyrazolo[1,5-a]pyrimidine-2-carboxamide]
330 | 1310 | O=C(NCCCn1ccnc1)c1cc2nc(-c3ccccc3)cc(-c3ccc4nonc4c3)n2n1 [Example 84, N-(3-(1H-imidazol-1-yl)propyl)-7-(benzo[c][1,2,5]oxadiazol-5-yl)-5-phenylpyrazolo[1,5-a]pyrimidine-2-carboxamide]
164 | 485 | CN1CC(NC(=O)c2cc3nc(-c4ccc(F)cc4)cc(-c4ccccc4)n3n2)C1 [Example 106, 5-(4-fluorophenyl)-N-(1-methylazetidin-3-yl)-7-phenylpyrazolo[1,5-a]pyrimidine-2-carboxamide]
305 | 840 | O=C(NCCCn1ccnc1)c1cc2nc(-c3ccccc3)cc(C3CCCC3)n2n1 [Example 108, N-(3-(1H-imidazol-1-yl)propyl)-7-cyclopentyl-5-phenylpyrazolo[1,5-a]pyrimidine-2-carboxamide]
776 | 8460 | O=C(NCCCn1ccnc1)c1cc2nc(-c3ccccc3)cc(C3CCCCN3)n2n1 (centres unmarked) [Example 114, N-(3-(1H-imidazo-1-yl)propyl)-5-phenyl-7-(piperidin-2.yl)pyrazolo[1,5-a]pyrimidine-2-carboxamide]
9770 | 4040 | Cc1cc(-c2ccccc2)nc2cc(C(=O)NCCCn3ccnc3)nn12 [Example 123, N-(3-(1H-imidazol-1-yl)propyl)-7-methyl-5-phenylpyrazolo[1,5-a]pyrimidine-2-carboxamide]
1250 | 6910 | O=C(NCCCn1ccnc1)c1cc2nc(-c3ccccc3)cc(-c3cccnc3)n2n1 [Example 96, N-(3-(1H-imidazol-1-yl)propyl)-5-phenyl-7-(pyridin-3-yl)pyrazolo[1,5-a]pyrimidine-2-carboxamide]
801 | 2400 | NCCNC(=O)c1cc2nc(-c3ccccc3)cc(-c3ccccc3)n2n1 [Example 119, N-(2-aminoethyl)-5,7-diphenylpyrazolo[1,5-a]pyrimidine-2-carboxamide hydrochloride]
256 | 291 | COc1cccc(-c2cc(-c3ccccc3)nc3cc(C(=O)NCCCn4ccnc4)nn23)c1 [Example 82, N-(3-(1H-imidazol-1-yl)propyl)-7-(3-methoxyphenyl)-5-phenylpyrazolo[1,5-a]pyrimidine-2-carboxamide]
582 | 1220 | CC(CN)CNC(=O)c1cc2nc(-c3ccccc3)cc(-c3ccccc3)n2n1 (centres unmarked) [Example 120, N-(3-amino-2-methylpropyl)-5,7-diphenylpyrazolo[1,5-a]pyrimidine-2-carboxamide hydrochloride]
296 | 119 | NCCCNC(=O)c1cc2nc(-c3ccccc3)cc(-c3ccccc3)n2n1 [Example 116, N-(3-aminopropyl)-5,7-diphenylpyrazolo[1,5-a]pyrimidine-2-carboxamide]

The next lines start with the molecule.

SMILES | IC50 (SMOX) [nM] | IC50 (hPAOX) [nM]
CCN1CCC(NC(=O)c2cc3nc(-c4ccccc4)cc(-c4ccccc4)n3n2)C1 (centres unmarked) [Example 5, N-(1-Ethylpyrrolidin-3-yl)-5,7-diphenylpyrazolo[1,5-a]pyrimidine-2-carboxamide] | 367 | 914
O=C(NCC1CCN(C2CC2)C1)c1cc2nc(-c3ccccc3)cc(-c3ccccc3)n2n1 (centres unmarked) [Example 22, N-((1-Cyclopropylpyrrolidin-3-yl)methyl)-5,7-diphenylpyrazolo[1,5-a]pyrimidine-2-carboxamide] | 691 | 535
Cc1c(C(=O)NCC2(C)CCN(C)C2)nn2c(-c3ccccc3)cc(-c3ccccc3)nc12 (centres unmarked) [Example 54, N-((1,3-Dimethylpyrrolidin-3-yl)methyl)-3-methyl-5,7-diphenylpyrazolo[1,5-a]pyrimidine-2-carboxamide] | 1490 | 30300
O=C(NCCCn1ccnc1)c1cc2nc(-c3ccccc3)cc(N3CCCC3)n2n1 [Example 66, N-(3-(1H-imidazol-1-yl)propyl)-5-phenyl-7-(pyrrolidin-1-yl)pyrazolo[1,5-a]pyrimidine-2-carboxamide] | 395 | 2500
CN1CC(NC(=O)c2nn3c(-c4ccccc4)cc(-c4ccccc4)nc3c2I)C1 [Example 46, 3-Iodo-N-(1-methylazetidin-3-yl)-5,7-diphenylpyrazolo[1,5-a]pyrimidine-2-carboxamide] | 33 | 5410
O=C(NCCc1ccccc1)c1cc2nc(-c3ccccc3)cc(-c3ccccc3)n2n1 [Example 40, N-Phenethyl-5,7-diphenylpyrazolo[1,5-a]pyrimidine-2-carboxamide] | > 31200 | > 31200
CN1CCC(CNC(=O)c2cc3nc(-c4ccccc4)cc(-c4ccccc4)n3n2)CC1 [Example 24, N-((1-Methylpiperidin-4-yl)methyl)-5,7-diphenylpyrazolo[1,5-a]pyrimidine-2-carboxamide] | 907 | 1940
O=C(NC1CN(Cc2ccccc2)C1)c1cc2nc(-c3ccccc3)cc(-c3ccccc3)n2n1 [Example 3, N-(1-Benzylazetidin-3-yl)-5,7-diphenylpyrazolo[1,5-a]pyrimidine-2-carboxamide] | 4360 | 4540
CN1CCC(NC(=O)c2cc3nc(-c4ccccc4)cc(N4CCCCC4)n3n2)C1 (centres unmarked) [Example 71, N-(1-methylpyrrolidin-3-yl)-5-phenyl-7-(piperidin-1-yl)pyrazolo[1,5-a]pyrimidine-2-carboxamide trifluoroacetate] | 988 | 5360
Cc1c(C(=O)NC2CCN(C)C2)nn2c(-c3ccccc3)cc(-c3ccccc3)nc12 (centres unmarked) [Example 51, 3-Methyl-N-(1-methylpyrrolidin-3-yl)-5,7-diphenylpyrazolo[1,5-a]pyrimidine-2-carboxamide] | 821 | 7710
CN1CC(NC(=O)c2nn3c(-c4ccccc4)cc(-c4ccccc4)nc3c2Cl)C1 [Example 49, 3-Chloro-N-(1-methylazetidin-3-yl)-5,7-diphenylpyrazolo[1,5-a]pyrimidine-2-carboxamide] | 108 | 9060
CN(C)CC(C)(C)CNC(=O)c1cc2nc(-c3ccccc3)cc(-c3ccccc3)n2n1 [Example 33, N-(3-(Dimethylamino)-2,2-dimethylpropyl)-5,7-diphenylpyrazolo[1,5-a]pyrimidine-2-carboxamide] | 314 | > 31200
CN(C)CCNC(=O)c1cc2nc(-c3ccccc3)cc(-c3ccccc3)n2n1 [Example 10, N-(2-(Dimethylamino)ethyl)-5,7-diphenylpyrazolo[1,5-a]pyrimidine-2-carboxamide] | 617 | 1380
O=C(NCCc1c[nH]cn1)c1cc2nc(-c3ccccc3)cc(-c3ccccc3)n2n1 [Example 34, N-(2-(1H-Imidazol-4-yl)ethyl)-5,7-diphenylpyrazolo[1,5-a]pyrimidine-2-carboxamide] | 262 | 11
O=C(NCCc1ccccn1)c1cc2nc(-c3ccccc3)cc(-c3ccccc3)n2n1 [Example 39, 5,7-Diphenyl-N-(2-(pyridin-2-yl)ethyl)pyrazolo[1,5-a]pyrimidine-2-carboxamide] | 2750 | 1420
O=C(NCCN1CCC1)c1cc2nc(-c3ccccc3)cc(-c3ccccc3)n2n1 [Example 36, N-(2-(Azetidin-1-yl)ethyl)-5,7-diphenylpyrazolo[1,5-a]pyrimidine-2-carboxamide] | 360 | 995
O=C(NCCCN1CCOCC1)c1cc2nc(-c3ccccc3)cc(-c3ccccc3)n2n1 [Example 13, N-(3-Morpholinopropyl)-5,7-diphenylpyrazolo[1,5-a]pyrimidine-2-carboxamide] | 604 | 5260

Source: US20250161307A1, “PYRAZOLOPYRIMIDINES AS MODULATORS OF SPERMINE OXIDASE” (Janssen Pharmaceutica NV, priority 2022, published 2025)
